Measured values as given in patent US10479795B2 (Incyte Corporation, priority 2016, dated 2019).
Counter-ions that a name gives are not always drawn. Like-named read-outs stand apart in the source and are kept apart here.

Legend:
[1] = target: PI3Kγ (p110γ) Recombinant Human Protein (Homo sapiens (Human), UniProt P48736); test: PI3K-γ Scintillation Proximity Assay; format: biochemical; conditions: read-out: PI3Kγ IC50
In short: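 Recombinant human p110γ assayed at room temperature in 20 mM MOPS pH 6.7, 10 mM MgCl2, 5 mM DTT, 0.03% CHAPS, 2% DMSO, with 20 μM PIP2 and 2 μM ATP plus [γ-33P]ATP. Product captured on WGA SPA beads overnight and counted; IC50 fitted from % of solvent-control activity versus log inhibitor concentration.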

[2] = tested on: Phosphorylated Ribosomal Protein S6 (RPS6); test: THP-1 RPS6 ELISA Assay; format: cell-based, Human; conditions: THP-1 cells, read-out: PI3Kγ_THP1_RPS6_ELISA IC50
In short: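 Serum-starved THP-1 cells were preincubated with a concentration range of compound for 2 h at 37 °C, then stimulated with 10 nM MCP-1 for 15 min. Phospho-RPS6 in lysates was quantified by ELISA at 450 nm. IC50 came from percent inhibition versus log inhibitor concentration.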

[3] = target: PI3Kδ (p110δ/p85α) Recombinant Human Protein (Homo sapiens (Human), UniProt O00329); test: PI3Kδ Scintillation Proximity Assay; format: biochemical
PI3Kδ (p110δ/p85α) Recombinant Human Protein, sequence (O00329 whole entry): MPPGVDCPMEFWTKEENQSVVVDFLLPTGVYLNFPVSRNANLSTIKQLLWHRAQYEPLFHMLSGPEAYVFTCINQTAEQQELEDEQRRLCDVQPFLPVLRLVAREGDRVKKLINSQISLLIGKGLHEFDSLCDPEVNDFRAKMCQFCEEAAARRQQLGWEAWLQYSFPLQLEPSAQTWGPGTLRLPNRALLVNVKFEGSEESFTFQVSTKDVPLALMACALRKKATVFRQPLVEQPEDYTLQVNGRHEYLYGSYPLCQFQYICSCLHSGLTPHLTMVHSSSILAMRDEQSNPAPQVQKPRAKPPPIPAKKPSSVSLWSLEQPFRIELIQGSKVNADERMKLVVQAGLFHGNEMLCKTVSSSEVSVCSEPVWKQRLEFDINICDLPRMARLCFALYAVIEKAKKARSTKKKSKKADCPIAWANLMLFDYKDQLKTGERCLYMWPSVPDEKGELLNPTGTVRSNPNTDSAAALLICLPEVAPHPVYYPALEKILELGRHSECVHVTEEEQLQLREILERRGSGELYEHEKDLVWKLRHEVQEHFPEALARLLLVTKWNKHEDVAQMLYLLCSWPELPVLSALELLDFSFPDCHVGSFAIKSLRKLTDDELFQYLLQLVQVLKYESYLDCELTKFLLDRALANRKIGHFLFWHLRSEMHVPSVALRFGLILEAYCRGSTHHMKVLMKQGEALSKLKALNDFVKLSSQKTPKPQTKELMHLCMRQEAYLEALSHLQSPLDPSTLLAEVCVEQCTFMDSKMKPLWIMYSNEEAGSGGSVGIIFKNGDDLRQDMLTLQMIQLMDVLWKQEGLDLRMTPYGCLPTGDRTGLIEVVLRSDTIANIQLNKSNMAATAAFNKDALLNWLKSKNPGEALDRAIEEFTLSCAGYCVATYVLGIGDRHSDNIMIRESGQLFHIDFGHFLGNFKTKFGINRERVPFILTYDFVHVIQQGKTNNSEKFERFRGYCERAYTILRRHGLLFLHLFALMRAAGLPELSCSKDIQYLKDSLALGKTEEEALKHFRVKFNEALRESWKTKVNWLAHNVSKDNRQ
PI3Kδ (p110δ/p85α) Recombinant Human Protein, sequence (P27986 whole entry partner): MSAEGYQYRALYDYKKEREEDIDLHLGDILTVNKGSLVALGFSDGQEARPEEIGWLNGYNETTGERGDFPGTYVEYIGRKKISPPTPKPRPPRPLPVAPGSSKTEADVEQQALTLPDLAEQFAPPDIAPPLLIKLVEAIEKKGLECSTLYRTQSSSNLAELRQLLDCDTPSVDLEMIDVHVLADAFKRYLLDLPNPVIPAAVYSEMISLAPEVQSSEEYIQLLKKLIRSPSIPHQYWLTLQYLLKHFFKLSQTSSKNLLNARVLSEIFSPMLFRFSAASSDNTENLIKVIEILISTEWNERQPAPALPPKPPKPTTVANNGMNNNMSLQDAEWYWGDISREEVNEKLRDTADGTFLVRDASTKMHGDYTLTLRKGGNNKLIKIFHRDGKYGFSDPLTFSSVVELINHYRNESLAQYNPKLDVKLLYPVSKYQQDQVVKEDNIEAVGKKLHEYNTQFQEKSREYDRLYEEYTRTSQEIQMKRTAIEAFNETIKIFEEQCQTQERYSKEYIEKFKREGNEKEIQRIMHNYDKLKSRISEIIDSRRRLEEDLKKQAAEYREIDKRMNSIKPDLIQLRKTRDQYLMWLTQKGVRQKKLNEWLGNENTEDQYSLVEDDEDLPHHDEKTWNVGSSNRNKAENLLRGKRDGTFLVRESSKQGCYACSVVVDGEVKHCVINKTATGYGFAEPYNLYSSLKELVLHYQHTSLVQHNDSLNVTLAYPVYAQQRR
In short: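 Recombinant human p110δ/p85α (3.4 nM) with 20 μM PIP2 and 2 μM ATP plus [γ-33P]ATP, in 20 mM MOPS pH 6.7, 10 mM MgCl2, 5 mM DTT, 0.03% CHAPS, 2% DMSO; 120 min at room temperature. Product captured on WGA SPA beads, scintillation counted; IC50 from percent-of-control curves.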

PI3Kγ (p110γ) Recombinant Human Protein, sequence (P48736 whole entry): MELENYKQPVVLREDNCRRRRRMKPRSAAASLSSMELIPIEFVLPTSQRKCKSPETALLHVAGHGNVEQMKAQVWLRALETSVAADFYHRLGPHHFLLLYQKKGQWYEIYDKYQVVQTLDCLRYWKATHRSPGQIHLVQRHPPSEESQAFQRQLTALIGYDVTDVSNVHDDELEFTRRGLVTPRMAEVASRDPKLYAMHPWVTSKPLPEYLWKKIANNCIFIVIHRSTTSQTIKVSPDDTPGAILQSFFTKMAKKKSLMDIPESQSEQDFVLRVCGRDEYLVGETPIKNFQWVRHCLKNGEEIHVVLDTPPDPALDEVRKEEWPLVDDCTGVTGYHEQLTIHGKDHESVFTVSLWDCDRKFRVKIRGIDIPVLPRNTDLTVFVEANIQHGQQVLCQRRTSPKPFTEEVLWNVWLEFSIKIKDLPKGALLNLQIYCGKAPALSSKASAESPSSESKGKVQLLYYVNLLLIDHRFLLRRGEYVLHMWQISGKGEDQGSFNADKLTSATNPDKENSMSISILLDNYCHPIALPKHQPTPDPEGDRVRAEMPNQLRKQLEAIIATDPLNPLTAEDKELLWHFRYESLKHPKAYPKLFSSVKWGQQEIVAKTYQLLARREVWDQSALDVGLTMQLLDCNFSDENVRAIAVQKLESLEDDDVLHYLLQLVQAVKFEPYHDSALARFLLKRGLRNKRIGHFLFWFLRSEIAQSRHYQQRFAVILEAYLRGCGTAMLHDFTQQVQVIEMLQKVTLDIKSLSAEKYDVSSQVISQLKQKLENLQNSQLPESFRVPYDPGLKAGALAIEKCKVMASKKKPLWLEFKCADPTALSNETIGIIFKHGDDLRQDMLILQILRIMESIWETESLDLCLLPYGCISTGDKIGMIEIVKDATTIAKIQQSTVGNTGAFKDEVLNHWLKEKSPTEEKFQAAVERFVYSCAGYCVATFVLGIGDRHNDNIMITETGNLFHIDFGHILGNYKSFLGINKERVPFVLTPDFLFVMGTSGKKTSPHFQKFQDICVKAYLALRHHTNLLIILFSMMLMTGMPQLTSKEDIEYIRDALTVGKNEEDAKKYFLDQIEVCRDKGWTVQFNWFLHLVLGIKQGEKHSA

Row | SMILES | IC50 [1] [nM] | IC50 ([2]; Homo sapiens) [nM] | IC50 [3] [nM] | IC50 [2] [nM]
1 | Cc1ccc(S(=O)(=O)NCC2(C)COC2)cc1-c1cnc2c(N)nccn12 [Example 15, 3-(8-Aminoimidazo[1,2-a]pyrazin-3-yl)-4-methyl-N-[(3-methyloxetan-3-yl)methyl]benzenesulfonamide trifluoroacetate] | < 100 | > 1000 | 500 to 2000 | –
2 | C[C@]1(O)CC[C@H](NS(=O)(=O)c2cc(-c3cnc4c(N)nc(-c5ccc(CO)cc5F)cn34)ccc2F)CC1 [Example 423, 5-(8-amino-6-(2-fluoro-4-(hydroxymethyl)phenyl)imidazo[1,2-a]pyrazin-3-yl)-2-fluoro-N-((1r,4r)-4-hydroxy-4-methylcyclohexyl)benzenesulfonamide] | < 100 | – | < 100 | < 100
3 | Cc1ccc(S(=O)(=O)N2CC[C@H](N)C2)cc1-c1cnc2c(N)nc(C(F)(F)F)cn12 [Example 305, (S)-3-(5-((3-aminopyrrolidin-1-yl)sulfonyl)-2-methylphenyl)-6-(trifluoromethyl)imidazo[1,2-a]pyrazin-8-amine bis(trifluoroacetate)] | < 100 | > 1000 | 100 to 500 | –
4 | Cc1ccc(S(=O)(=O)NC23CC(CN4CCOCC4)(C2)C3)cc1-c1cnc2c(N)nc(C(F)(F)F)cn12 [Example 289, 3-(8-Amino-6-(trifluoromethyl)imidazo[1,2-a]pyrazin-3-yl)-4-methyl-N-(3-(morpholinomethyl)bicyclo[1.1.1]pentan-1-yl)benzenesulfonamide trifluoroacetate salt] | < 100 | 100 to 500 | 100 to 500 | –
5 | Cc1ccc(S(=O)(=O)N(CCC#N)C2CCCC2)cc1-c1cnc2c(N)nc(C(F)(F)F)nn12 [Example 346, 3-(4-amino-2-(trifluoromethyl)imidazo[2,1-f][1,2,4]triazin-7-yl)-N-(2-cyanoethyl)-N-cyclopentyl-4-methylbenzenesulfonamide] | < 100 | 100 to 500 | 100 to 500 | –
6 | Cc1ccc(S(=O)(=O)N[C@]2(C)CC[C@@H](O)CC2)cc1-c1cnc2c(N)ncnn12 [Example 127, 3-(4-aminoimidazo[2,1-f][1,2,4]triazin-7-yl)-N-(trans-4-hydroxy-1-methylcyclohexyl)-4-methylbenzenesulfonamide] | < 100 | – | 500 to 2000 | 100 to 500
7 | Cc1nc(N)c2ncc(-c3cc(S(=O)(=O)N[C@H]4CC[C@](C)(O)CC4)ccc3C)n2n1 [Example 271, 3-(4-amino-2-methylimidazo[1,2-f][1,2,4]triazin-7-yl)-N-((1r,4r)-4-hydroxy-4-methylcyclohexyl)-4-methylbenzenesulfonamide trifluoroacetate salt] | < 100 | – | 100 to 500 | < 100
8 | Cc1ccc(S(=O)(=O)NC23CC(Cn4cncn4)(C2)C3)cc1-c1cnc2c(N)nc(C(F)(F)F)cn12 [Example 280, N-(3-((1H-1,2,4-triazol-1-yl)methyl)bicyclo[1.1.1]pentan-1-yl)-3-(8-amino-6-(trifluoromethyl)imidazo[1,2-a]pyrazin-3-yl)-4-methylbenzenesulfonamide] | < 100 | 100 to 500 | 100 to 500 | –
9 | Cc1ccc(S(=O)(=O)NC23CCC(C#N)(CC2)C3)cc1-c1cnc2c(N)ncnn12 [Example 90, 3-(4-Aminoimidazo[1,2-f][1,2,4]triazin-7-yl)-N-(4-cyanobicyclo[2.2.1]heptan-1-yl)-4-methylbenzenesulfonamide trifluoroacetate salt] | < 100 | – | 100 to 500 | < 100
10 | Cc1ccc(S(=O)(=O)N[C@H]2CC[C@H](O)CC2)cc1-c1cnc2c(N)nc(C(F)(F)F)cn12 [Example 310, 3-(8-Amino-6-(trifluoromethyl)imidazo[1,2-a]pyrazin-3-yl)-N-(trans-4-hydroxycyclohexyl)-4-methylbenzenesulfonamide] | < 100 | < 100 | 100 to 500 | –
11 | Cc1cc(C)c(S(=O)(=O)N[C@H]2CC[C@](C)(O)CC2)cc1-c1cnc2c(N)nc(C(F)(F)F)nn12 [Example 413, 5-(4-Amino-2-(trifluoromethyl)imidazo[1,2-f][1,2,4]triazin-7-yl)-N-((1r,4r)-4-hydroxy-4-methylcyclohexyl)-2,4-dimethylbenzenesulfonamide trifluoroacetate salt] | < 100 | – | 100 to 500 | < 100

More lines, now with the values ahead:

Row | IC50 [1] [nM] | IC50 ([2]; Homo sapiens) [nM] | IC50 [3] [nM] | IC50 [2] [nM] | SMILES
12 | < 100 | 100 to 500 | 100 to 500 | – | Cc1ccc(S(=O)(=O)N[C@H]2CC[C@H](O)CC2)cc1-c1cnc2c(N)nccn12 [Example 13, 3-(8-Aminoimidazo[1,2-a]pyrazin-3-yl)-N-(trans-4-hydroxycyclohexyl)-4-methylbenzenesulfonamide]
13 | < 100 | – | 100 to 500 | 100 to 500 | Cc1ccc(S(=O)(=O)NC23CC(CF)(C2)C3)cc1-c1cnc2c(N)nc(C(F)(F)F)nn12 [Example 331, 3-(4-Amino-2-(trifluoromethyl)imidazo[1,2-f][1,2,4]triazin-7-yl)-N-(3-(fluoromethyl)bicyclo[1.1.1]pentan-1-yl)-4-methylbenzenesulfonamide trifluoroacetate salt]
14 | < 100 | < 100 | 100 to 500 | – | Cc1c(F)cc(S(=O)(=O)NC23CCC(C#N)(C2)C3)cc1-c1cnc2c(N)nc(C(F)(F)F)cn12 [Example 397, 3-(8-Amino-6-(trifluoromethyl)imidazo[1,2-a]pyrazin-3-yl)-N-(4-cyanobicyclo[2.1.1]hexan-1-yl)-5-fluoro-4-methylbenzenesulfonamide trifluoroacetate salt]
15 | < 100 | 100 to 500 | 500 to 2000 | – | Cc1cn2c(-c3cc(S(=O)(=O)N[C@@H]4CC[C@@H](C(C)(C)O)OC4)c(C)cc3C)cnc2c(N)n1 [Example 465, 5-(8-Amino-6-methylimidazo[1,2-a]pyrazin-3-yl)-N-((3R,6S)-6-(2-hydroxypropan-2-yl)tetrahydro-2H-pyran-3-yl)-2,4-dimethylbenzenesulfonamide]
16 | < 100 | 100 to 500 | 100 to 500 | – | [2H]C([2H])([2H])c1ccc(S(=O)(=O)N2CCCC(CO)C2)cc1-c1cnc2c(N)nc(C(F)(F)F)cn12 (stereo not drawn) [Example 409, (1-((3-(8-Amino-6-(trifluoromethyl)imidazo[1,2-a]pyrazin-3-yl)-4-(methyl-d3)phenyl)sulfonyl)piperidin-3-yl)methanol]
17 | < 100 | > 1000 | 100 to 500 | – | Cc1ccc(S(=O)(=O)N[C@H]2CC[C@H](O)CC2)cc1-c1cnc2c(N)nc(-c3cnn(C)c3)cn12 [Example 29, 3-[8-Amino-6-(1-methyl-1H-pyrazol-4-yl)imidazo[1,2-a]pyrazin-3-yl]-N-(trans-4-hydroxycyclohexyl)-4-methylbenzenesulfonamide]
18 | < 100 | 100 to 500 | 100 to 500 | – | Cc1ccc(S(=O)(=O)NC23CCC(CN4CCOCC4)(CC2)OC3)cc1-c1cnc2c(N)ncnn12 [Example 434, 3-(4-Aminoimidazo[1,2-f][1,2,4]triazin-7-yl)-4-methyl-N-(1-(morpholinomethyl)-2-oxabicyclo[2.2.2]octan-4-yl)benzenesulfonamide trifluoroacetate salt]
19 | < 100 | 100 to 500 | 100 to 500 | – | Cc1ncc(S(=O)(=O)NC23CCC(C#N)(C2)C3)cc1-c1cnc2c(N)ncnn12 [Example 256, 5-(4-Aminoimidazo[2,1-f][1,2,4]triazin-7-yl)-N-(4-cyanobicyclo[2.1.1]hexan-1-yl)-6-methylpyridine-3-sulfonamide trifluoroacetate salt]
20 | < 100 | < 100 | 100 to 500 | – | Cc1ccc(S(=O)(=O)NC23COC(C)(C2)C3)cc1-c1cnc2c(N)nc(C(F)(F)F)cn12 [Example 425, 3-(8-Amino-6-(trifluoromethyl)imidazo[1,2-a]pyrazin-3-yl)-4-methyl-N-(1-methyl-2-oxabicyclo[2.1.1]hexan-4-yl)benzenesulfonamide trifluoroacetate salt]
21 | < 100 | 100 to 500 | < 100 | – | Cc1cc(-c2cn3c(-c4cc(S(=O)(=O)N[C@H]5CC[C@H](O)CC5)ccc4C)cnc3c(N)n2)on1 [Example 75, 3-[8-Amino-6-(3-methylisoxazol-5-yl)imidazo[1,2-a]pyrazin-3-yl]-N-(trans-4-hydroxycyclohexyl)-4-methylbenzenesulfonamide]
22 | < 100 | < 100 | 100 to 500 | – | COc1nc(CO)ccc1-c1cn2c(-c3cc(S(C)(=O)=O)ccc3C)cnc2c(N)n1 [Example 490, (5-(8-Amino-3-(2-methyl-5-(methylsulfonyl)phenyl)imidazo[1,2-a]pyrazin-6-yl)-6-methoxypyridin-2-yl)methanol trifluoroacetate]
23 | < 100 | 100 to 500 | 100 to 500 | – | Cc1ccc(S(=O)(=O)NC23CCC(CO)(C2)C3)cc1-c1cnc2c(N)nc(C(F)(F)F)cn12 [Example 275, 3-(8-Amino-6-(trifluoromethyl)imidazo[1,2-a]pyrazin-3-yl)-N-(4-(hydroxymethyl)bicyclo[2.1.1]hexan-1-yl)-4-methylbenzenesulfonamide trifluoroacetate salt]
